This note sets out measurements from patent publication US10758534B2 (Vertex Pharmaceuticals Incorporated, priority 2014, dated 2020).

What is called EC30 is the point of the concentration-response curve where the effect stands at 30%.

Where only a bound is given, the exact number is not on record here.

The target in one experiment is T1, F508del (Homo sapiens, UniProt P13569, DEL508-508).
T1 construct: expressed in transfected cells
T1 sequence (P13569 with tags, fused parts or gaps DEL508-508): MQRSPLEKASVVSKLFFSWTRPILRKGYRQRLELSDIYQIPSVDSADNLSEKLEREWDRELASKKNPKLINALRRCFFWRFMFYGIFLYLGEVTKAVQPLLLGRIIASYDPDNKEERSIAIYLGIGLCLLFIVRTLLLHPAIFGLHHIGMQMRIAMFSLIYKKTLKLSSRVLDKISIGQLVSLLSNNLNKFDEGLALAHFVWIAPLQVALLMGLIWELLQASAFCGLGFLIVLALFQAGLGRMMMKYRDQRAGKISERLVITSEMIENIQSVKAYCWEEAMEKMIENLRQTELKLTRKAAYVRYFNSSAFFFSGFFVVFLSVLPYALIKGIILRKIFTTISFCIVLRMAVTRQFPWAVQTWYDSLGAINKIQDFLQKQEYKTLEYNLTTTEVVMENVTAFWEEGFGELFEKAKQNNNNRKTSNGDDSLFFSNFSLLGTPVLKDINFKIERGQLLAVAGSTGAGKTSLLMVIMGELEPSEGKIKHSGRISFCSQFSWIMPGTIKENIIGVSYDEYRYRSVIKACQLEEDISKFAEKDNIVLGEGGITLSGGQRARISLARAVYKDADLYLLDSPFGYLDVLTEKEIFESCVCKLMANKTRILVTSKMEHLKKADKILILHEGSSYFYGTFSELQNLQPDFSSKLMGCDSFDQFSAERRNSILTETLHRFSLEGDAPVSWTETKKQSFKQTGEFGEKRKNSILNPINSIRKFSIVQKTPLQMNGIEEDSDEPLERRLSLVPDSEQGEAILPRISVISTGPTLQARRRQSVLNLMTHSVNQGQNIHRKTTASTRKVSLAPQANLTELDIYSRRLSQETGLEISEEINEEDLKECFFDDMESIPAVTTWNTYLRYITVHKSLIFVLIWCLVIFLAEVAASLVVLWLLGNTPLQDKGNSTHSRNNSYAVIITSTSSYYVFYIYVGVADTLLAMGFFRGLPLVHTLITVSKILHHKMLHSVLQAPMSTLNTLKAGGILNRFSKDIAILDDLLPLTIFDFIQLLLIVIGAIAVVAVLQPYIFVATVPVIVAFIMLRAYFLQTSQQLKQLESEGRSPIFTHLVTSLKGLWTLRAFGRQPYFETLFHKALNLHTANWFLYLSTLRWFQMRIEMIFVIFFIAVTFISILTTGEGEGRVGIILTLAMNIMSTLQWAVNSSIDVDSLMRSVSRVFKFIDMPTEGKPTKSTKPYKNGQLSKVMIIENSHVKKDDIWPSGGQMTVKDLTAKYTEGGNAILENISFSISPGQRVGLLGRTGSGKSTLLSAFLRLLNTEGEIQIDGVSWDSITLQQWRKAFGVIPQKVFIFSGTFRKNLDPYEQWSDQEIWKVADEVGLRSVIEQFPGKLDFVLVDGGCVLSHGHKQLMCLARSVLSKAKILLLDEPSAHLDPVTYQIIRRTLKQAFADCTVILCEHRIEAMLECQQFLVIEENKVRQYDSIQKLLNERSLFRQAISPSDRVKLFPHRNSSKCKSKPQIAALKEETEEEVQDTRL
Briefly: Protocol 2: FRET membrane potential optical assay (VIPR), identification of correction compounds. As to conditions: F508del CFTR modulator activity; compounds of Table 1; read-out: EC30. Type of experiment: cell-based. The method, boiled down: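 FRET read-out (CC2-DMPE donor, DiSBAC2(3) voltage-sensitive acceptor) of membrane depolarization on VIPR II. Corrector candidates incubated 16 hrs at 37° C. with NIH3T3 cells expressing F508del; temperature correction at 27° C. as positive control; stimulation by 10 μM forskolin, 20 μM genistein, chloride-free gluconate bath.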
Turning to `C[C@@H]1CN(c2nc(-c3cccc(C(F)(F)F)c3)ccc2C(=O)NS(=O)(=O)c2cccnc2N)C(C)(C)C1` [Compound 2593, N-[(2-amino-3-pyridyl)sulfonyl]-6-[3-(trifluoromethyl)phenyl]-2-[(4S)-2,2,4-trimethylpyrrolidin-1-yl]pyridine-3-carboxamide], the EC30 was less than 3000 nM.

Regarding `CC1CN(c2ncccc2C(=O)NS(=O)(=O)c2cccc(Nc3ccc(N4CCCCC4)cc3)n2)C(C)(C)C1` (centres unmarked) [Compound 2087, N—[[6-[4-(1-piperidyl)anilino]-2-pyridyl]sulfonyl]-2-(2,2,4-trimethylpyrrolidin-1-yl)pyridine-3-carboxamide], the EC30 is less than 3000 nM.

Turning to `C[C@@H]1CN(c2nc(C3CCOC3)ccc2C(=O)NS(=O)(=O)c2ccccc2)C(C)(C)C1` (stereo partly drawn) [Compound 2277, N-(benzenesulfonyl)-6-tetrahydrofuran-3-yl-2-[(4S)-2,2,4-trimethylpyrrolidin-1-yl]pyridine-3-carboxamide], the EC30 is less than 3000 nM. Still for that read-out and setting: the result for `C[C@@H]1CN(c2nc(C3CC4CCC3C4)ccc2C(=O)NS(=O)(=O)c2cccnc2N)C(C)(C)C1` (stereo partly drawn) [Compound 2097, N-[(2-amino-3-pyridyl)sulfonyl]-6-norbornan-2-yl-2-[(4S)-2,2,4-trimethylpyrrolidin-1-yl]pyridine-3-carboxamide] reads less than 3000 nM; that for `C[C@@H]1CN(c2nc(-n3ccc(OCC(C)(C)C)n3)ccc2C(=O)NS(=O)(=O)c2ccc[nH]c2=O)C(C)(C)C1` [Compound 2578, 6-[3-(2,2-dimethylpropoxy)pyrazol-1-yl]-N-[(2-oxo-1H-pyridin-3-yl)sulfonyl]-2-[(4S)-2,2,4-trimethylpyrrolidin-1-yl]pyridine-3-carboxamide], less than 3000 nM. Same read-out and setting: the same measure for `CCOCCOc1ncc(-c2ccc(C(=O)NS(=O)(=O)c3cccnc3N)c(N3C[C@@H](C)CC3(C)C)n2)cc1C` [Compound 2497, N-[(2-amino-3-pyridyl)sulfonyl]-6-[6-(2-ethoxyethoxy)-5-methyl-3-pyridyl]-2-[(4S)-2,2,4-trimethylpyrrolidin-1-yl]pyridine-3-carboxamide]: less than 3000 nM; for `CCCC(C)(C)Oc1cccc(S(=O)(=O)NC(=O)c2cccnc2N2CC(C)CC2(C)C)n1` (centres unmarked) [Compound 2130, N—[[6-(1,1-dimethylbutoxy)-2-pyridyl]sulfonyl]-2-(2,2,4-trimethylpyrrolidin-1-yl)pyridine-3-carboxamide]: less than 3000 nM; for `COc1cccc(-c2ccc(C(=O)NS(=O)(=O)c3ccc[nH]c3=O)c(N3C[C@@H](C)CC3(C)C)n2)n1` [Compound 2101, 6-(6-methoxy-2-pyridyl)-N-[(2-oxo-1H-pyridin-3-yl)sulfonyl]-2-[(4S)-2,2,4-trimethylpyrrolidin-1-yl]pyridine-3-carboxamide]: less than 3000 nM. The same measure, in the same setting: the same measure for `CC(=O)c1cccc(Oc2cccc(S(=O)(=O)NC(=O)c3cccnc3N3CC(C)CC3(C)C)n2)c1` (centres unmarked) [Compound 2569, N—[[6-(3-acetylphenoxy)-2-pyridyl]sulfonyl]-2-(2,2,4-trimethylpyrrolidin-1-yl)pyridine-3-carboxamide]: less than 3000 nM; for `CC1CN(c2ncccc2C(=O)NS(=O)(=O)c2cccc(OC3CCCCCC3)n2)C(C)(C)C1` (centres unmarked) [Compound 2252, N—[[6-(cycloheptoxy)-2-pyridyl]sulfonyl]-2-(2,2,4-trimethylpyrrolidin-1-yl)pyridine-3-carboxamide]: less than 3000 nM; for `CC1CN(c2ncccc2C(=O)NS(=O)(=O)c2cccc(Oc3ccccc3C(C)(C)C)n2)C(C)(C)C1` (centres unmarked) [Compound 2083, N—[[6-(2-tert-butylphenoxy)-2-pyridyl]sulfonyl]-2-(2,2,4-trimethylpyrrolidin-1-yl)pyridine-3-carboxamide]: less than 3000 nM. On to `C[C@@H]1CN(c2nc(-c3ccc(C(F)F)cc3)ccc2C(=O)NS(=O)(=O)c2cccnc2N)C(C)(C)C1` [Compound 2644, N-[(2-amino-3-pyridyl)sulfonyl]-6-[4-(difluoromethyl)phenyl]-2-[(4S)-2,2,4-trimethylpyrrolidin-1-yl]pyridine-3-carboxamide], for which the EC30 was less than 3000 nM. The same measure, in the same setting: the same measure for `COc1cc(-c2ccc(C(=O)NS(=O)(=O)c3ccc[nH]c3=O)c(N3C[C@@H](C)CC3(C)C)n2)ccc1C` [Compound 2440, 6-(3-methoxy-4-methyl-phenyl)-N-[(2-oxo-1H-pyridin-3-yl)sulfonyl]-2-[(4S)-2,2,4-trimethylpyrrolidin-1-yl]pyridine-3-carboxamide]: less than 3000 nM; for `Cc1cc(C)cc(-c2cnc(N3CC(C)CC3(C)C)c(C(=O)NS(=O)(=O)c3cccc(N)n3)c2)c1` (centres unmarked) [Compound 2093, N-[(6-amino-2-pyridyl)sulfonyl]-5-(3,5-dimethylphenyl)-2-(2,2,4-trimethylpyrrolidin-1-yl)pyridine-3-carboxamide]: less than 3000 nM.

The experiment is the same for the next values; noted with them: Table 3; compounds of Table 1 as modulators of CFTR activity; protocol not stated.
Turning to `Cc1ccc(-c2ccc(C(=O)NS(=O)(=O)c3cccc(N)n3)c(N3CC(C)CC3(C)C)n2)cc1` (centres unmarked) [Compound 456, N-[(6-amino-2-pyridyl)sulfonyl]-6-(p-tolyl)-2-(2,2,4-trimethylpyrrolidin-1-yl)pyridine-3-carboxamide], the EC30 result is on record as “+++ (“+++” means <3 uM)”. Still for that read-out and setting: the same measure for `COc1cc(-c2cc(C(=O)NS(=O)(=O)c3ccccc3)n(Cc3c(C)cccc3C)n2)ccc1Cl` [Compound 37, N-(benzenesulfonyl)-5-(4-chloro-3-methoxy-phenyl)-2-[(2,6-dimethylphenyl)methyl]pyrazole-3-carboxamide]: “+++ (“+++” means <3 uM)”; for `CC(C)COc1cc(F)cc(-c2ccc(C(=O)NS(=O)(=O)c3cccc(N)n3)c(N3CCC(C(C)(C)C)C3)n2)c1` (centres unmarked) [Compound 611, N-[(6-amino-2-pyridyl)sulfonyl]-2-(3-tert-butylpyrrolidin-1-yl)-6-(3-fluoro-5-isobutoxy-phenyl)pyridine-3-carboxamide]: “+++ (“+++” means <3 uM)”; for `CC(C)Oc1ccc(-c2ccc(C(=O)NS(=O)(=O)c3cccc(N)n3)c(N3[C@@H](C)CC[C@@H]3C)n2)cn1` [Compound 687, N-[(6-amino-2-pyridyl)sulfonyl]-2-[(2S,5S)-2,5-dimethylpyrrolidin-1-yl]-6-(6-isopropoxy-3-pyridyl)pyridine-3-carboxamide]: “++ (“++” means between 3 uM and 10 uM)”. Regarding `COc1cccc(S(=O)(=O)NC(=O)c2cc3ccccc3n2Cc2c(C)cc(C)cc2C)c1` [Compound 335, N-(3-methoxyphenyl)sulfonyl-1-[(2,4,6-trimethylphenyl)methyl]indole-2-carboxamide], the EC30 entry is “+++ (“+++” means <3 uM)”. Same read-out and setting: the same measure for `COc1ccc(-c2cc(C(=O)NS(=O)(=O)c3ccccc3)n(Cc3c(C)cccc3C)n2)cc1` [Compound 49, N-(benzenesulfonyl)-2-[(2,6-dimethylphenyl)methyl]-5-(4-methoxyphenyl)pyrazole-3-carboxamide]: “+++ (“+++” means <3 uM)”. Same read-out and setting: the result for `CC(C)COc1cc(F)cc(-c2ccc(C(=O)NS(=O)(=O)c3ccn[nH]3)c(N3CCCC4(COC4)C3)n2)c1` [Compound 519, 6-(3-fluoro-5-isobutoxy-phenyl)-2-(2-oxa-8-azaspiro[3.5]nonan-8-yl)-N-(1H-pyrazol-5-ylsulfonyl)pyridine-3-carboxamide] reads “++ (“++” means between 3 uM and 10 uM)”. The same measure, in the same setting: the same measure for `Cc1cc(C)c(Cc2nc(C(C)(C)C)ccc2C(=O)NS(=O)(=O)c2cccc(N)c2)c(C)c1` [Compound 346, N-(3-aminophenyl)sulfonyl-6-tert-butyl-2-[(2,4,6-trimethylphenyl)methyl]pyridine-3-carboxamide]: “+++ (“+++” means <3 uM)”; for `CC(C)Oc1ccc(-c2ccc(C(=O)NS(=O)(=O)c3cccc(N)n3)c(N3CCC(C)C(C)(C)C3)n2)cn1` (centres unmarked) [Compound 435, N-[(6-amino-2-pyridyl)sulfonyl]-6-(6-isopropoxy-3-pyridyl)-2-(3,3,4-trimethyl-1-piperidyl)pyridine-3-carboxamide]: “+++ (“+++” means <3 uM)”. In the case of `COc1cccc(S(=O)(=O)NC(=O)c2ccc(C(C)(C)C)nc2-c2ccc(C)cc2)c1` [Compound 327, 6-tert-butyl-N-(3-methoxyphenyl)sulfonyl-2-(p-tolyl)pyridine-3-carboxamide], the EC30 result was “+++ (“+++” means <3 uM)”.

Regarding `Cc1cccc(C)c1Cn1nc(-c2ccccc2Cl)cc1C(=O)NS(=O)(=O)c1ccccc1` [Compound 339, N-(benzenesulfonyl)-5-(2-chlorophenyl)-2-[(2,6-dimethylphenyl)methyl]pyrazole-3-carboxamide], the EC30 entry was “+++ (“+++” means <3 uM)”. For the molecule `Cc1cccc(C)c1Oc1nc(C(F)(F)F)ccc1C(=O)NS(=O)(=O)c1cccc(N)c1` [Compound 243, N-(3-aminophenyl)sulfonyl-2-(2,6-dimethylphenoxy)-6-(trifluoromethyl)pyridine-3-carboxamide], the EC30 entry was “+++ (“+++” means <3 uM)”. `Cc1cc(C)c(Cn2c(C(=O)NS(=O)(=O)c3ccccc3)cc3cc(F)ccc32)c(C)c1` [Compound 33, N-(benzenesulfonyl)-5-fluoro-1-[(2,4,6-trimethylphenyl)methyl]indole-2-carboxamide]: the concentration for an effect of 30% (EC30) result is “+++ (“+++” means <3 uM)”.

Consider `CC(C)(C)c1cc(C(=O)NS(=O)(=O)c2cccc(N)c2)n(Cc2c(Cl)cccc2C(F)(F)F)n1` [Compound 189, N-(3-aminophenyl)sulfonyl-5-tert-butyl-2-[[2-chloro-6-(trifluoromethyl)phenyl]methyl]pyrazole-3-carboxamide], for which the EC30 result is listed as “+++ (“+++” means <3 uM)”. The same measure, in the same setting: the result for `COc1ccc(-c2ccc(C(=O)NS(=O)(=O)c3cccc(N)n3)c(Oc3c(C)cc(C)cc3C)n2)cn1` [Compound 531, N-[(6-amino-2-pyridyl)sulfonyl]-6-(6-methoxy-3-pyridyl)-2-(2,4,6-trimethylphenoxy)pyridine-3-carboxamide] reads “+++ (“+++” means <3 uM)”.
